In ChEMBL document CHEMBL3739261, “Synthesis and antibacterial activity evaluation of C-5 side chain modified analogues of FYL-66, a potential agent against methicillin-resistant Staphylococcus aureus” (Medchemcomm, 2015):
Converted amounts (≈) assume the structure as drawn.

Assays:
[1] = test system: Staphylococcus aureus; assay: Antibacterial activity against methicillin-susceptible Staphylococcus aureus ATCC 25923 incubated for 18 hrs by broth microdilution method; type: functional; details: ATCC 25923, 18 h
[2] = test system: Staphylococcus aureus; assay: Antibacterial activity against methicillin-susceptible Staphylococcus aureus CMCC 2603 incubated for 18 hrs by broth microdilution method; type: functional; details: CMCC 2603, 18 h
[3] = test system: Staphylococcus aureus; assay: Antibacterial activity against methicillin-susceptible Staphylococcus aureus ATCC 29213 incubated for 18 hrs by broth microdilution method; type: functional; details: ATCC 29213, 18 h
[4] = test system: Staphylococcus aureus; assay: Antibacterial activity against methicillin-susceptible Staphylococcus aureus ATCC 6538 incubated for 18 hrs by broth microdilution method; type: functional; details: ATCC 6538, 18 h
[5] = test system: Staphylococcus aureus; assay: Antibacterial activity against methicillin-resistant Staphylococcus aureus ATCC 33591 incubated for 18 hrs by broth microdilution method; type: functional; details: ATCC 33591, 18 h
[6] = test system: Staphylococcus aureus; assay: Antibacterial activity against methicillin-resistant Staphylococcus aureus ATCC 43300 incubated for 18 hrs by broth microdilution method; type: functional; details: ATCC 43300, 18 h
[7] = test system: Escherichia coli; assay: Antibacterial activity against Escherichia coli ATCC 25922 incubated for 18 hrs by broth microdilution method; type: functional; details: ATCC 25922, 18 h
[8] = test system: Pseudomonas aeruginosa; assay: Antibacterial activity against Pseudomonas aeruginosa ATCC 27853 incubated for 18 hrs by broth microdilution method; type: functional; details: ATCC 27853, 18 h
[9] = Cytotoxicity against HEK293A cells after 48 hrs by MTT assay; type: cell-based; details: Homo sapiens, HEK293-A
[10] = Cytotoxicity against human L02 cells after 48 hrs by MTT assay; type: cell-based; details: L02, 48 h
[11] = Solubility of compound in distilled water after 24 hrs by HPLC analysis; type: physicochemical
[12] = Octanol/water partition coefficient, log P of the compound by HPLC assay; type: physicochemical

| SMILES | MIC [1] [µg/mL] | MIC [2] [µg/mL] | MIC [3] [µg/mL] | MIC [4] [µg/mL] | MIC [5] [µg/mL] | MIC [6] [µg/mL] | MIC [7] [µg/mL] | MIC [8] [µg/mL] | IC50 [9] [µg/mL] | IC50 [10] [µg/mL] | solubility at 24 h [11] [µM] | logP [12] |
| --- | --- | --- | --- | --- | --- | --- | --- | --- | --- | --- | --- | --- |
| O=C1O[C@@H](CN2CCCCC2)CN1c1ccc(-n2cc(-c3ccccn3)cn2)c(F)c1 | 32 (≈ 75.9 µM) | > 32 | 32 (≈ 75.9 µM) | 32 (≈ 75.9 µM) | 32 (≈ 75.9 µM) | 32 (≈ 75.9 µM) | > 32 | > 32 | > 400 | > 400 | 219 (≈ 92.4 µg/mL) | 3.1 |
| O=C1O[C@@H](CN2CCC(c3ccc(F)cc3)CC2)CN1c1ccc(-n2cc(-c3ccccn3)cn2)c(F)c1 | > 32 | > 32 | > 32 | > 32 | > 32 | > 32 | > 32 | > 32 | > 400 | > 400 | ≤ 19.4 | 5.78 |
| O=C1O[C@@H](CSc2cccs2)CN1c1ccc(-n2cc(-c3ccccn3)cn2)c(F)c1 | > 32 | > 32 | > 32 | > 32 | > 32 | > 32 | > 32 | > 32 | > 400 | > 400 | 8.5 (≈ 3.85 µg/mL) | 4.29 |
| O=C1OC(Cn2ccnc2)CN1c1ccc(-n2cc(-c3ccccn3)cn2)c(F)c1 (single isomer, unassigned) | > 32 | > 32 | > 32 | > 32 | > 32 | > 32 | > 32 | > 32 | > 400 | 350 (≈ 865 µM) | 12.3 (≈ 4.97 µg/mL) | 1.73 |
| NC(=O)[C@H]1CN(c2ccc(-n3cc(-c4ccccn4)cn3)c(F)c2)C(=O)O1 | 16 (≈ 43.6 µM) | 16 (≈ 43.6 µM) | 16 (≈ 43.6 µM) | 16 (≈ 43.6 µM) | 16 (≈ 43.6 µM) | 16 (≈ 43.6 µM) | > 32 | > 32 | 152 (≈ 414 µM) | 119 (≈ 324 µM) | 27.2 (≈ 9.99 µg/mL) | 1.59 |
| O=C1O[C@@H](Cn2ccnn2)CN1c1ccc(-n2cc(-c3ccccn3)cn2)c(F)c1 | 4 (≈ 9.87 µM) | 4 (≈ 9.87 µM) | 4 (≈ 9.87 µM) | 4 (≈ 9.87 µM) | 4 (≈ 9.87 µM) | 4 (≈ 9.87 µM) | > 32 | > 32 | 225 (≈ 555 µM) | 49 (≈ 121 µM) | 247 (≈ 100 µg/mL) | 2 |
| O=C1CCC(=O)N1C[C@H]1CN(c2ccc(-n3cc(-c4ccccn4)cn3)c(F)c2)C(=O)O1 | > 32 | > 32 | > 32 | > 32 | > 32 | > 32 | > 32 | > 32 | > 400 | > 400 | 45.3 (≈ 19.7 µg/mL) | 1.58 |
| CONC(=O)[C@H]1CN(c2ccc(-n3cc(-c4ccccn4)cn3)c(F)c2)C(=O)O1 | 16 (≈ 40.3 µM) | 16 (≈ 40.3 µM) | 16 (≈ 40.3 µM) | 16 (≈ 40.3 µM) | 16 (≈ 40.3 µM) | 16 (≈ 40.3 µM) | > 32 | > 32 | > 400 | > 400 | 78.1 (≈ 31 µg/mL) | ≥ 1.58 |
| CCNC(=O)NC[C@H]1CN(c2ccc(-n3cc(-c4ccccn4)cn3)c(F)c2)C(=O)O1 | 8 (≈ 18.8 µM) | 8 (≈ 18.8 µM) | 8 (≈ 18.8 µM) | 8 (≈ 18.8 µM) | 8 (≈ 18.8 µM) | 8 (≈ 18.8 µM) | > 32 | > 32 | 29 (≈ 68.3 µM) | > 400 | 222 (≈ 94.1 µg/mL) | 2.45 |
| CC(=O)OC[C@H]1CN(c2ccc(-n3cc(-c4ccccn4)cn3)c(F)c2)C(=O)O1 | > 32 | > 32 | > 32 | > 32 | > 32 | > 32 | > 32 | > 32 | > 400 | > 400 | 373 (≈ 148 µg/mL) | 2.09 |
| O=C1O[C@@H](CN2CCC(O)CC2)CN1c1ccc(-n2cc(-c3ccccn3)cn2)c(F)c1 | > 32 | > 32 | > 32 | > 32 | > 32 | > 32 | > 32 | > 32 | > 400 | > 400 | 45.9 (≈ 20.1 µg/mL) | 1.63 |
| CN(CCC#N)C[C@H]1CN(c2ccc(-n3cc(-c4ccccn4)cn3)c(F)c2)C(=O)O1 | > 32 | > 32 | > 32 | > 32 | > 32 | > 32 | > 32 | > 32 | > 400 | > 400 | 64.5 (≈ 27.1 µg/mL) | 1.9 |
| O=C1O[C@@H](CN2CCN(CCO)CC2)CN1c1ccc(-n2cc(-c3ccccn3)cn2)c(F)c1 | > 32 | > 32 | > 32 | > 32 | > 32 | > 32 | > 32 | > 32 | > 400 | > 400 | 125 (≈ 58.1 µg/mL) | 1.09 |
| COC[C@H]1CN(c2ccc(-n3cc(-c4ccccn4)cn3)c(F)c2)C(=O)O1 | > 32 | > 32 | > 32 | > 32 | > 32 | > 32 | > 32 | > 32 | > 400 | > 400 | 36.2 (≈ 13.3 µg/mL) | 2.18 |
| O=C1CSC(=O)N1C[C@H]1CN(c2ccc(-n3cc(-c4ccccn4)cn3)c(F)c2)C(=O)O1 | > 32 | > 32 | > 32 | > 32 | > 32 | > 32 | > 32 | > 32 | 283 (≈ 624 µM) | > 400 | 26.9 (≈ 12.2 µg/mL) | 2.18 |
| COC(=O)NC[C@H]1CN(c2ccc(-n3cc(-c4ccccn4)cn3)c(F)c2)C(=O)O1 | 4 (≈ 9.72 µM) | 4 (≈ 9.72 µM) | 4 (≈ 9.72 µM) | 4 (≈ 9.72 µM) | 4 (≈ 9.72 µM) | 4 (≈ 9.72 µM) | > 32 | > 32 | 306 (≈ 744 µM) | 71 (≈ 173 µM) | 34.1 (≈ 14 µg/mL) | 2.03 |
| O=C1O[C@@H](CN2CCOCC2)CN1c1ccc(-n2cc(-c3ccccn3)cn2)c(F)c1 | > 32 | > 32 | > 32 | > 32 | > 32 | > 32 | > 32 | > 32 | > 400 | > 400 | 109 (≈ 46.2 µg/mL) | 2 |
| CS(=O)(=O)NC[C@H]1CN(c2ccc(-n3cc(-c4ccccn4)cn3)c(F)c2)C(=O)O1 | > 64 | > 64 | > 64 | > 64 | > 64 | > 64 | > 32 | > 32 | 314 (≈ 728 µM) | > 400 | 2.3 (≈ 0.992 µg/mL) | 1.38 |
| O=CNC[C@H]1CN(c2ccc(-n3cc(-c4ccccn4)cn3)c(F)c2)C(=O)O1 | 8 (≈ 21 µM) | 8 (≈ 21 µM) | 8 (≈ 21 µM) | 8 (≈ 21 µM) | 8 (≈ 21 µM) | 8 (≈ 21 µM) | > 32 | > 32 | > 400 | > 400 | 217 (≈ 82.8 µg/mL) | 1.19 |
| O=C1CNC(=O)N1C[C@H]1CN(c2ccc(-n3cc(-c4ccccn4)cn3)c(F)c2)C(=O)O1 | > 32 | > 32 | > 32 | > 32 | > 32 | > 32 | > 32 | > 32 | > 400 | > 400 | 1630 (≈ 713 µg/mL) | 1.25 |
| O=C1O[C@@H](CO)CN1c1ccc(-n2cc(-c3ccccn3)cn2)c(F)c1 |  |  |  |  |  |  |  |  | > 400 | 59 (≈ 167 µM) | 56.4 (≈ 20 µg/mL) | 1.67 |
| O=C(CF)NC[C@H]1CN(c2ccc(-n3cc(-c4ccccn4)cn3)c(F)c2)C(=O)O1 | 4 (≈ 9.68 µM) | 4 (≈ 9.68 µM) | 4 (≈ 9.68 µM) | 4 (≈ 9.68 µM) | 4 (≈ 9.68 µM) | 4 (≈ 9.68 µM) | > 32 | > 32 | > 400 | 106 (≈ 256 µM) | 61.8 (≈ 25.5 µg/mL) | 1.29 |
| CN(CCO)C[C@H]1CN(c2ccc(-n3cc(-c4ccccn4)cn3)c(F)c2)C(=O)O1 | > 32 | > 32 | > 32 | > 32 | > 32 | > 32 | > 32 | > 32 | 367 (≈ 892 µM) | 134 (≈ 326 µM) | 669 (≈ 275 µg/mL) | 1.44 |
| CN(C)S(=O)(=O)NC[C@H]1CN(c2ccc(-n3cc(-c4ccccn4)cn3)c(F)c2)C(=O)O1 | > 32 | > 32 | > 32 | > 32 | > 32 | > 32 | > 32 | > 32 | 249 (≈ 541 µM) | 158 (≈ 343 µM) | 472 (≈ 217 µg/mL) | 1.38 |
